Assay results published in BigSolDB 2.1.

Q: Which solubility (mole fraction) (in 1,4-dioxane, 283.15 K) does the source give for `NC(=O)c1ncn([C@@H]2O[C@H](CO)[C@@H](O)[C@H]2O)n1` here?
A: 7.06e-05

Q: And the solubility (mole fraction) (in 1,4-dioxane, 288.15 K)?
A: 0.000101

Q: What about the solubility (mole fraction) (in 1,4-dioxane, 293.15 K) of the same compound?
A: 0.000145

Q: And the solubility (mole fraction) (in 1,4-dioxane, 298.15 K)?
A: 0.000203

Q: What about the solubility (mole fraction) (in 1,4-dioxane, 303.15 K) of the same compound?
A: 0.000282

Q: What about the solubility (mole fraction) (in 1,4-dioxane, 308.15 K) of the same compound?
A: 0.000387

Q: And the solubility (mole fraction) (in 1,4-dioxane, 313.15 K)?
A: 0.000527

Q: And the solubility (mole fraction) (in 1,4-dioxane, 318.15 K)?
A: 0.000712

Q: What about the solubility (mole fraction) (in acetonitrile, 278.15 K) of the same compound?
A: 8.6e-06

Q: And the solubility (mole fraction) (in acetonitrile, 283.15 K)?
A: 1.33e-05

Q: And the solubility (mole fraction) (in acetonitrile, 288.15 K)?
A: 1.94e-05

Q: What about the solubility (mole fraction) (in acetonitrile, 293.15 K) of the same compound?
A: 2.77e-05

Q: And the solubility (mole fraction) (in acetonitrile, 298.15 K)?
A: 3.96e-05

Q: What about the solubility (mole fraction) (in acetonitrile, 303.15 K) of the same compound?
A: 5.64e-05

Q: What about the solubility (mole fraction) (in acetonitrile, 308.15 K) of the same compound?
A: 7.88e-05

Q: And the solubility (mole fraction) (in acetonitrile, 313.15 K)?
A: 0.00011

Q: And the solubility (mole fraction) (in acetonitrile, 318.15 K)?
A: 0.00015

Q: And the solubility (mole fraction) (in methanol, 278.15 K)?
A: 0.000379

Q: And the solubility (mole fraction) (in methanol, 283.15 K)?
A: 0.000517

Q: What about the solubility (mole fraction) (in methanol, 288.15 K) of the same compound?
A: 0.000711

Q: And the solubility (mole fraction) (in methanol, 293.15 K)?
A: 0.000952

Q: And the solubility (mole fraction) (in methanol, 298.15 K)?
A: 0.00128

Q: And the solubility (mole fraction) (in methanol, 303.15 K)?
A: 0.00171

Q: And the solubility (mole fraction) (in methanol, 308.15 K)?
A: 0.00223

Q: And the solubility (mole fraction) (in methanol, 313.15 K)?
A: 0.00293

Q: What about the solubility (mole fraction) (in methanol, 318.15 K) of the same compound?
A: 0.00379

Q: What about the solubility (mole fraction) (in n-propanol, 278.15 K) of the same compound?
A: 5.99e-05

Q: And the solubility (mole fraction) (in n-propanol, 283.15 K)?
A: 8.69e-05

Q: And the solubility (mole fraction) (in n-propanol, 288.15 K)?
A: 0.000122

Q: What about the solubility (mole fraction) (in n-propanol, 293.15 K) of the same compound?
A: 0.000171

Q: What about the solubility (mole fraction) (in n-propanol, 298.15 K) of the same compound?
A: 0.000242

Q: What about the solubility (mole fraction) (in n-propanol, 303.15 K) of the same compound?
A: 0.000332

Q: And the solubility (mole fraction) (in n-propanol, 308.15 K)?
A: 0.000455

Q: What about the solubility (mole fraction) (in n-propanol, 313.15 K) of the same compound?
A: 0.000617

Q: What about the solubility (mole fraction) (in n-propanol, 318.15 K) of the same compound?
A: 0.000829

Q: What about the solubility (mole fraction) (in water, 278.15 K) of the same compound?
A: 0.0058

Q: And the solubility (mole fraction) (in water, 283.15 K)?
A: 0.00775

Q: And the solubility (mole fraction) (in water, 288.15 K)?
A: 0.0104

Q: And the solubility (mole fraction) (in water, 293.15 K)?
A: 0.0135

Q: What about the solubility (mole fraction) (in water, 298.15 K) of the same compound?
A: 0.0174

Q: And the solubility (mole fraction) (in water, 303.15 K)?
A: 0.0219

Q: What about the solubility (mole fraction) (in water, 308.15 K) of the same compound?
A: 0.0273

Q: And the solubility (mole fraction) (in water, 313.15 K)?
A: 0.0335

Q: And the solubility (mole fraction) (in water, 318.15 K)?
A: 0.0405
